Test system: UGT1A1
Assay: Clinical study of SCO-101 with FOLFIRI: serum bilirubin and bilirubin index after SCO-101
Type: in vivo, human
Protocol: The term “bilirubin index” as used herein or “bilirubin index score” which are used interchangeably, refer to a patient's rate of bilirubin normalization subsequent to administration of an UGT1A1 inhibitor to the patient. Herein, the bilirubin index is determined subsequent to administration of an UGT1A1 inhibitor to the patient for a number of consecutive days, such as 1, 2, 3, 4, 5, or 6, preferably 6 days. Based on 6 consecutive days of administration with an UGT1A1 inhibitor, the bilirubin index is determined as the bilirubin serum or plasma concentration (unconjugated or total bilirubin) on day 12 divided with the bilirubin serum or plasma concentration on day 7 and thus is an indicator of how much the patients' UGT1A1 activity has normalized following cessation of SCO-101 treatment and can be determined using bilirubin as a surrogate marker.
Bilirubin: Blood sampling for analysis of bilirubin (total, unconjugated and conjugated) were withdrawn at Screening (up to 4 weeks prior start of treatment), day 5, day 7 and day 12 in the first treatment cycle.
Likely, the increase in unconjugated bilirubin is mediated through inhibition of the enzyme UDP-glucuronosyltransferase 1 family, polypeptide A1 (UGT1A1). UGT1A1 is an enzyme responsible for conjugation of poorly soluble endo- and xenobiotics making them more soluble and possible to excrete. UGT1A1 is the primary enzyme responsible for conjugation of bilirubin and metabolism of Irinotecan's active metabolite SN-38. The bilirubin index score is the bilirubin serum concentration (unconjugated or total bilirubin) on day 12 divided with the bilirubin serum concentration on day 7 and thus is an indicator of how much the patients' UGT1A1 activity has normalized following cessation of SCO-101 treatment, and can be determined using bilirubin as a surrogate marker. In FIG. 2, an overview of the bilirubin index for all patients is included. The mean bilirubin index score for the six RAS wild type patients is approximately 0.15 (lowest 0.04, highest 0.28) whereas the mean score for the six RAS mutated patients is 0.59 (lowest 0.25, highest 0.76). Thus, there is a strong indication that the bilirubin index can predict a patient's tolerability to treatment.

Compound: O=C(Nc1cc(C(F)(F)F)cc(C(F)(F)F)c1)Nc1ccc(Br)cc1-c1nnn[nH]1 [SCO-101]
- reversibility of bilirubin increase / UGT1A1 inhibition (after discontinuation of SCO-101 treatment): completely reversible
- bilirubin index (bilirubin serum concentration on day 12 divided with day 7) (patients with RAS mutation, cohort 1 (150 mg SCO-101), cycle 1): above 0.4
- effect on unconjugated bilirubin serum concentration (patients, SCO-101 days 1 to 6): specific and dose dependent increase
- highest bilirubin index score (six RAS mutated patients): 0.76
- lowest bilirubin index score (six RAS mutated patients): 0.25
- mean bilirubin index score (six RAS mutated patients): 0.59
- highest bilirubin index score (six RAS wild type patients): 0.28
- lowest bilirubin index score (six RAS wild type patients): 0.04
- mean bilirubin index score (six RAS wild type patients): approximately 0.15

From patent US20240374567A1, “Combination Treatments for Cancer Patients and Methods for Identifying Same” (Scandion Oncology A/S, priority 2021, published 2024)
